Laboratory results published in patent publication US6867284B1, “Peptide inhibitors of hepatitis C virus NS3 protease” (Istituto di Ricerche di Biologia Molecolare P. Angeletti …, priority 1998, dated 2005).
Where two headings read alike, the source gives them in different places.

Biological target: T1, HCV NS3 protease (Hepatitis C virus genotype 1b, UniProt P26663)
T1 construct: an NS3/4A complex comprising the NS3 protease domain
Assay: Inhibition of NS3 protease (HPLC cleavage assay, NS3/4A complex with Pep4AK, substrate peptide 4AB)
Format: biochemical
Procedure: Buffer solutions containing 80 μM Pep4AK were preincubated for 10 minutes with 10-200 nM protease and reactions were started by addition of substrate. Six duplicate data points at different substrate concentrations were used to calculate kinetic parameters. Incubation times were chosen in order to obtain <7% substrate conversion and reactions were stopped by addition of 40 μl 1% TFA. Cleavage of peptide substrates was determined by HPLC using a Merck-Hitachi chromatograph equipped with an autosampler. 80 μl samples were injected on a Lichrospher C18 reversed phase cartridge column (4×74 mm, 5 μm, Merck) and fragments were separated using a 10-40% acetonitrile gradient a 5%/min using a flow rate of 2.5 ml/min. Peak detection was accomplished by monitoring both the absorbance at 220 nm and tyrosine fluorescence (λex=260 nm, λem=305 nm). Cleavage products were quantitated by integration of chromatograms with respect to appropriate standards. Kinetic parameters were calculated from nonlinear least-squares fit of initial rates as a function of substrate concentration with the help of a Kaleidagraph software, assuming Michaelis-Menten kinetics.
Ki values of peptide inhibitors were calculated from substrate titration experiments performed in the presence of increasing amounts of inhibitor. Experimental data sets were simultaneously fitted to eq.1 using a multicurve fit macro with the help of a Sigmaplot software: V=(VmaxS)/(Km(1+[…])+S); (eq.1)
Alternatively, Ki values were derived from IC50 values, calculated using a four-parameter logistic function, according to eq.2: IC50−(1+S/Km)Ki (eq.2)

[1] = Table 3 capped dipeptide keto acids, read-out: IC50
[2] = Table 4 indoline keto acids and related, read-out: IC50

T1 sequence (P26663 1027-1208, other chains not shown): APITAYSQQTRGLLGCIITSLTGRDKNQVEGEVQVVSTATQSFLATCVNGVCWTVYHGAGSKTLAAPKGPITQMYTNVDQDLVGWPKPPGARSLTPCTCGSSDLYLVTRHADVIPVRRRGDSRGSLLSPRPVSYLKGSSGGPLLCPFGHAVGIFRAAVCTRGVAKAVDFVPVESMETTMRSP

SMILES	IC50 [1] [µM]	IC50 [2] [µM]	further results
CCCC(CCC)C(=O)N[C@@H](CC(C)C)C(=O)NC(CC(F)F)C(=O)C(=O)O (mixture of isomers) [Compound 7c]	78		
CC(C)C[C@H](NC(=O)CCCC(=O)O)C(=O)NC(CC(F)F)C(=O)C(=O)O (mixture of isomers) [Compound 7d]	6		
CC(C)C[C@H](NC(=O)CC(C)(C)CC(=O)O)C(=O)NC(CC(F)F)C(=O)C(=O)O (mixture of isomers) [Compound 7e]	4		
CC(C)C[C@H](NC(=O)COCC(=O)O)C(=O)NC(CC(F)F)C(=O)C(=O)O (mixture of isomers) [Compound 7h]	32		
CC(C)C[C@H](NC(=O)CC(CC(=O)O)c1ccccc1)C(=O)NC(CC(F)F)C(=O)C(=O)O (mixture of isomers) [Compound 7j]			IC50: 26 µM
CC(C)C[C@H](NC(=O)CC(CC(=O)O)c1ccc(Cl)cc1)C(=O)NC(CC(F)F)C(=O)C(=O)O (mixture of isomers) [Compound 7k]	35		
COC(=O)CC1(CC(=O)N[C@@H](CC(C)C)C(=O)NC(CC(F)F)C(=O)C(=O)O)CCCC1 (mixture of isomers) [Compound 7m]	85		
CC(C)C[C@H](NC(=O)CC1(CC(=O)NS(=O)(=O)c2ccccc2)CCCC1)C(=O)NC(CC(F)F)C(=O)C(=O)O (mixture of isomers) [Compound 7n]	7		
CC(C)C[C@H](NC(=O)C1(CCC(=O)O)CCCC1)C(=O)NC(CC(F)F)C(=O)C(=O)O (mixture of isomers) [Compound 7o]	22		
CC(C)C[C@H](NC(=O)CC1(CC(=O)O)CCCCC1)C(=O)NC(CC(F)F)C(=O)C(=O)O (mixture of isomers) [Compound 7q]	2		
CC(C)C[C@H](NC(=O)Cc1cccc(CC(=O)O)c1)C(=O)NC(CC(F)F)C(=O)C(=O)O (mixture of isomers) [Compound 8c]	7		
CC(C)C[C@H](NC(=O)Cc1ccc(CC(=O)O)cc1)C(=O)NC(CC(F)F)C(=O)C(=O)O (mixture of isomers) [Compound 8d]	7		
CC(C)C[C@H](NC(=O)C(Sc1ccccc1)c1ccccc1)C(=O)NC(CC(F)F)C(=O)C(=O)O (mixture of isomers) [Compound 8i]	28		
CC(C)C[C@H](NC(=O)C(Cc1ccccc1)c1ccccc1)C(=O)NC(CC(F)F)C(=O)C(=O)O (mixture of isomers) [Compound 8j]	100		
COc1ccc(C(Oc2ccccc2)C(=O)N[C@@H](CC(C)C)C(=O)NC(CC(F)F)C(=O)C(=O)O)cc1 (mixture of isomers) [Compound 8k]	72		
CC(C)C[C@H](NC(=O)[C@H](O)C1CCCCC1)C(=O)NC(CC(F)F)C(=O)C(=O)O (mixture of isomers) [Compound 8l]	14		
CC(C)C[C@H](NC(=O)C1OC(=O)CC12CCCC2)C(=O)NC(CC(F)F)C(=O)C(=O)O (mixture of isomers) [Compound 8m]	60		
CC(C)C[C@H](NC(=O)[C@H](O)c1ccccc1)C(=O)NC(CC(F)F)C(=O)C(=O)O (mixture of isomers) [Compound 8n]	6		
CC(C)C[C@H](NC(=O)[C@H](O)c1ccc(C(F)(F)F)cc1)C(=O)NC(CC(F)F)C(=O)C(=O)O (mixture of isomers) [Compound 8o]	56		
COc1ccc([C@@H](O)C(=O)N[C@@H](CC(C)C)C(=O)NC(CC(F)F)C(=O)C(=O)O)cc1 (mixture of isomers) [Compound 8p]	25		
CC(C)C[C@H](NC(=O)[C@H](O)c1ccc(Cl)cc1)C(=O)NC(CC(F)F)C(=O)C(=O)O (mixture of isomers) [Compound 8q]	25		

SMILES	IC50 [1] [µM]	IC50 [2] [µM]	further results
CC(C)C[C@H](NC(=O)[C@H](O)c1ccccc1Cl)C(=O)NC(CC(F)F)C(=O)C(=O)O (mixture of isomers) [Compound 8r]	82		
CCCCC1(C(=O)NC(CC(C)C)C(=O)NC(CC(F)F)C(=O)C(=O)O)Cc2ccccc2N1 (mixture of isomers) [Compound 9b]		87	
CC(C)C[C@H](NC(=O)C1(C(C)C)Cc2ccccc2N1)C(=O)NC(CC(F)F)C(=O)C(=O)O (mixture of isomers) [Compound 9c]		92	
CC(C)C[C@H](NC(=O)C1(CC(C)C)Cc2ccccc2N1)C(=O)NC(CC(F)F)C(=O)C(=O)O (mixture of isomers) [Compound 9d]		16	
CC(C)=CCC1(C(=O)NC(CC(C)C)C(=O)NC(CC(F)F)C(=O)C(=O)O)Cc2ccccc2N1 (mixture of isomers) [Compound 9e]		69	
CC(C)CCC1(C(=O)N[C@@H](CC(C)C)C(=O)NC(CC(F)F)C(=O)C(=O)O)Cc2ccccc2N1 (mixture of isomers) [Compound 9f]		120	
CCC(C)CC1(C(=O)N[C@@H](CC(C)C)C(=O)NC(CC(F)F)C(=O)C(=O)O)Cc2ccccc2N1 (mixture of isomers) [Compound 9h]		81	
CC(C)C[C@H](NC(=O)C1(CC2CCC2)Cc2ccccc2N1)C(=O)NC(CC(F)F)C(=O)C(=O)O (mixture of isomers) [Compound 9j]		34	
CC(C)C[C@H](NC(=O)C1(C2CCCCC2)Cc2ccccc2N1)C(=O)NC(CC(F)F)C(=O)C(=O)O (mixture of isomers) [Compound 9k]		69	
CC(C)C[C@H](NC(=O)C1(CC2CCCCC2)Cc2ccccc2N1)C(=O)NC(CC(F)F)C(=O)C(=O)O (mixture of isomers) [Compound 9l]		31	
COCCOCC1(C(=O)N[C@@H](CC(C)C)C(=O)NC(CC(F)F)C(=O)C(=O)O)Cc2ccccc2N1 (mixture of isomers) [Compound 9m]		57	
CC(C)C[C@H](NC(=O)C1(CC(=O)O)Cc2ccccc2N1)C(=O)NC(CC(F)F)C(=O)C(=O)O (mixture of isomers) [Compound 9n]		81	
CC(C)C[C@H](NC(=O)C1(Cc2ccccc2)Cc2ccccc2N1)C(=O)NC(CC(F)F)C(=O)C(=O)O (mixture of isomers) [Compound 9o]		45	
CC(C)C[C@H](NC(=O)C1(C(C)c2ccccc2)Cc2ccccc2N1)C(=O)NC(CC(F)F)C(=O)C(=O)O (mixture of isomers) [Compound 9p]		88	
CC(C)C[C@H](NC(=O)C1(Cc2cccc(Br)c2)Cc2ccccc2N1)C(=O)NC(CC(F)F)C(=O)C(=O)O (mixture of isomers) [Compound 9r]		100	
COc1cccc(CC2(C(=O)N[C@@H](CC(C)C)C(=O)NC(CC(F)F)C(=O)C(=O)O)Cc3ccccc3N2)c1 (mixture of isomers) [Compound 9s]		38	
CC(C)CC(NC(=O)C1(Cc2cccc(C#N)c2)Cc2ccccc2N1)C(=O)NC(CC(F)F)C(=O)C(=O)O (mixture of isomers) [Compound 9t]		9	
CC(C)C[C@H](NC(=O)C1(Cc2cccc(Oc3ccccc3)c2)Cc2ccccc2N1)C(=O)NC(CC(F)F)C(=O)C(=O)O (mixture of isomers) [Compound 9v]		24	
CC(C)C[C@H](NC(=O)C1(Cc2ccc(Cl)s2)Cc2ccccc2N1)C(=O)NC(CC(F)F)C(=O)C(=O)O (mixture of isomers) [Compound 9w]		3	
CC(C)C[C@H](NC(=O)C1(CC(C)C)Cc2ccc(Oc3ccccc3)cc2N1)C(=O)NC(CC(F)F)C(=O)C(=O)O (mixture of isomers) [Compound 10c]		100	
CC(C)C[C@H](NC(=O)C1Cc2ccc(OCC3CC3)cc2N1)C(=O)NC(CC(F)F)C(=O)C(=O)O (mixture of isomers) [Compound 10d]		66	
